The values that follow come from article PMC9450471 (Computational Biology and Chemistry, 2022).

This assay deals with SARS-CoV-2 (Omicron variant, B.1.1.529/BA.5 sublineage). The class given is cell-based. To be noted: for time at which utmost effectiveness against the Omicron variant is reached: after administration/treatment starter.

Values joined by “and” are separate entries in the source; they are usually repeats but may differ in a detail not shown here. Equal entries are not always repeated. Where two headings read alike, the source gives them in different places.

For the compound `O=c1[nH]cnc2c([C@@H]3N[C@H](CO)[C@@H](O)[C@H]3O)c[nH]c12` [Forodesine], the “100% CPE Inhibitory Concentration (CPEIC100)” value is 1.6 ± 0.065 µM and the “time at which utmost effectiveness against the Omicron variant is reached” value lay in the range of 3.5 to 9.5 h. The “100% CPE Inhibitory Concentration (CPEIC100)” value (listed as forodesine) was determined as 1.6 µM. Turning to `CC(C)Nc1nc2cc(Cl)c(Cl)cc2n1[C@H]1O[C@@H](CO)[C@H](O)[C@@H]1O` [Maribavir], the “100% CPE Inhibitory Concentration (CPEIC100)” value was determined as 7.986 ± 0.277 µM. Consider `CC(C)C(=O)OC[C@H]1O[C@@H](n2ccc(NO)nc2=O)[C@H](O)[C@@H]1O` [Molnupiravir], for which the “100% CPE Inhibitory Concentration (CPEIC100)” value came to 6.19 ± 0.275 µM. In addition, the “100% CPE Inhibitory Concentration (CPEIC100)” value (listed as molnupiravir) was 6.19 µM.

For the compound `COc1nc(N)nc2c1ncn2[C@@H]1O[C@H](CO)[C@@H](O)[C@@H]1O` [Nelarabine], the “100% CPE Inhibitory Concentration (CPEIC100)” value is 4.105 ± 0.149 µM. As for `CCC(CC)COC(=O)[C@H](C)N[P@](=O)(OC[C@H]1O[C@@](C#N)(c2ccc3c(N)ncnn23)[C@H](O)[C@@H]1O)Oc1ccccc1` [Remdesivir], the “100% CPE Inhibitory Concentration (CPEIC100)” value turned out to be 5.883 ± 0.255 µM. Moreover, for the setting “listed as remdesivir”, the “100% CPE Inhibitory Concentration (CPEIC100)” value turned out to be 5.883 µM. As for `CC(C)=CCNc1ncnc2c1ncn2[C@@H]1O[C@H](CO)[C@@H](O)[C@H]1O` [Riboprine, N ^6-(2-Isopentenyl)adenosine], the “100% CPE Inhibitory Concentration (CPEIC100)” value was 1.11 µM and 1.11 ± 0.047 µM; the “time at which utmost effectiveness against the Omicron variant is reached” value was in the range of 3.5 to 9.5 h. Take `OC[C@H]1O[C@@H](n2cnc3c(N[C@@H]4CCOC4)ncnc32)[C@H](O)[C@@H]1O` [Tecadenoson]: the “100% CPE Inhibitory Concentration (CPEIC100)” value amounted to 7.645 ± 0.24 µM. For `Nc1ncnc2c1ncn2[C@@H]1O[C@H](CO)[C@@H](O)[C@@H]1O` [Vidarabine, Arabinosyladenine], the “100% CPE Inhibitory Concentration (CPEIC100)” value was determined as 8.042 ± 0.288 µM.
